Measurements taken from US9113629B2, “4-amino-6-(4-substituted-phenyl)-picolinates and 6-amino-2-(4-substituted-phenyl)-pyrimidine-4-carboxylates and their use as herbicides” (DOW AGROSCIENCES LLC, priority 2013, dated 2015).
Where two headings read alike, the source gives them in different places.

What was measured:
[1] = system: Key Broadleaf Weed and Crop Species; experiment: Post-emergent Test II herbicidal activity (Table 5); format: in vivo; conditions: post-emergence, 336 h, post-emergent, 14 days after application; for pest or weed control at 70 g/ha: 70 g ai/ha; for pest or weed control at 140 g/ha: 140 g ai/ha
In short: (§1)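 Injury was rated visually 14 d after treatment on a 0–100% scale against untreated controls. Test compounds, formulated with crop oil concentrate and surfactant and serially diluted down to 1/16× of the top rate, were applied by track sprayer at 187 L/ha onto first- to second-true-leaf seedlings.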

[2] = system: Key Grass and Sedge Weeds as well as Grass Crops; experiment: Post-emergent Test II herbicidal activity (Table 6); format: in vivo; conditions: post-emergence, 336 h; for pest or weed control at 70 g/ha: application rate 70 g ai/ha; for pest or weed control at 140 g/ha: application rate 140 g ai/ha
In short: as §1

[3] = ABUTH: velvetleaf (Abutilon theophrasti), read-out: Visual Growth Reduction (%) 14 Days After Application ABUTH
[4] = AMARE: redroot pigweed (Amaranthus retroflexus), read-out: Visual Growth Reduction (%) 14 Days After Application AMARE
[5] = BRSNN: oilseed-rape, canola (Brassica napus), read-out: Visual Growth Reduction (%) 14 Days After Application BRSNN
[6] = CHEAL: lambsquarters (Chenopodium album), read-out: Visual Growth Reduction (%) 14 Days After Application CHEAL
[7] = EPHHL: wild poinsettia (Euphorbia heterophylla), read-out: Visual Growth Reduction (%) 14 Days After Application EPHHL
[8] = HELAN: sunflower (Helianthus annuus), read-out: Visual Growth Reduction (%) 14 Days After Application HELAN
[9] = VIOTR: wild pansy (Viola tricolor), read-out: Visual Growth Reduction (%) 14 Days After Application VIOTR
[10] = Triticum aestivum, TRZSS (wheat), read-out: Visual Growth Reduction (%) 14 Days After Application, TRZSS
[11] = CYPES: yellow nutsedge (Cyperus esculentus), read-out: Visual Growth Reduction (%) 14 Days After Application, CYPES
[12] = DIGSA: crabgrass (Digitaria sanguinalis), read-out: Visual Growth Reduction (%) 14 Days After Application, DIGSA
[13] = ECHCG: barnyardgrass (Echinochloa crus-galli), read-out: Visual Growth Reduction (%) 14 Days After Application, ECHCG
[14] = ORYSA: rice (Oryza sativa), read-out: Visual Growth Reduction (%) 14 Days After Application, ORYSA
[15] = SETFA: giant foxtail (Setaria faberi), read-out: Visual Growth Reduction (%) 14 Days After Application, SETFA
[16] = SORVU: grain sorghum (Sorghum vulgare), read-out: Visual Growth Reduction (%) 14 Days After Application, SORVU
[17] = ZEAMX: maize, corn (Zea mays), read-out: Visual Growth Reduction (%) 14 Days After Application, ZEAMX

SMILES | pest or weed control at 70 g/ha [1, 3] [%] | pest or weed control at 140 g/ha [1, 3] [%] | pest or weed control at 70 g/ha [1, 4] [%] | pest or weed control at 140 g/ha [1, 4] [%] | pest or weed control at 70 g/ha [1, 5] [%] | pest or weed control at 140 g/ha [1, 5] [%] | pest or weed control at 70 g/ha [1, 6] [%] | pest or weed control at 140 g/ha [1, 6] [%] | pest or weed control at 70 g/ha [1, 7] [%] | pest or weed control at 140 g/ha [1, 7] [%] | pest or weed control at 70 g/ha [1, 8] [%] | pest or weed control at 140 g/ha [1, 8] [%] | pest or weed control at 70 g/ha [1, 9] [%] | pest or weed control at 140 g/ha [1, 9] [%] | pest or weed control at 70 g/ha [2, 10] [%] | pest or weed control at 140 g/ha [2, 10] [%] | pest or weed control at 70 g/ha [2, 11] [%] | pest or weed control at 140 g/ha [2, 11] [%] | pest or weed control at 70 g/ha [2, 12] [%] | pest or weed control at 140 g/ha [2, 12] [%] | further results
COc1c(N)nc(-c2cc(F)c(I)cc2F)nc1C(=O)O [Compound 119] | 75 to 84 | 85 to 94 | 85 to 94 | 95 to 100 | 95 to 100 | 95 to 100 | 95 to 100 | 95 to 100 | 95 to 100 | 95 to 100 | 85 to 94 | 85 to 94 | 0 to 29 | 0 to 29 | 45 to 59 | 60 to 74 | 45 to 59 | 45 to 59 | 45 to 59 | 60 to 74 | pest or weed control at 70 g/ha [2, 13]: 85 to 94%; pest or weed control at 140 g/ha [2, 13]: 85 to 94%; pest or weed control at 70 g/ha [2, 14]: 0 to 29%; pest or weed control at 140 g/ha [2, 14]: 0 to 29%; pest or weed control at 70 g/ha [2, 15]: 60 to 74%; pest or weed control at 140 g/ha [2, 15]: 60 to 74%; pest or weed control at 70 g/ha [2, 16]: 60 to 74%; pest or weed control at 140 g/ha [2, 16]: 60 to 74%; pest or weed control at 70 g/ha [2, 17]: 60 to 74%; pest or weed control at 140 g/ha [2, 17]: 60 to 74%; melting point: 131 to 132 °C
C#Cc1ccc(-c2nc(C(=O)OC)c(Cl)c(N)c2Cl)cc1 [Compound 34] | 95 to 100 | 95 to 100 | 95 to 100 | 95 to 100 | 85 to 94 | 95 to 100 | 95 to 100 | 95 to 100 | 75 to 84 | 85 to 94 | 95 to 100 | 95 to 100 | 0 to 29 | 0 to 29 | 60 to 74 | 60 to 74 | 60 to 74 | 60 to 74 | 0 to 29 | 45 to 59 | pest or weed control at 70 g/ha [2, 13]: 0 to 29%; pest or weed control at 140 g/ha [2, 13]: 0 to 29%; pest or weed control at 70 g/ha [2, 14]: 0 to 29%; pest or weed control at 140 g/ha [2, 14]: 0 to 29%; pest or weed control at 70 g/ha [2, 15]: 75 to 84%; pest or weed control at 140 g/ha [2, 15]: 85 to 94%; pest or weed control at 70 g/ha [2, 16]: 30 to 44%; pest or weed control at 140 g/ha [2, 16]: 45 to 59%; pest or weed control at 70 g/ha [2, 17]: 60 to 74%; pest or weed control at 140 g/ha [2, 17]: 60 to 74%; melting point: 164.2 to 166.8 °C
COC(=O)c1nc(-c2ccc(OC(F)F)cc2)cc(N)c1Cl [Compound 23] | 95 to 100 | 95 to 100 | 95 to 100 | 95 to 100 | 0 to 29 | 0 to 29 | 85 to 94 | 95 to 100 | 95 to 100 | 95 to 100 | 0 to 29 | 85 to 94 | 0 to 29 | 0 to 29 | 0 to 29 | 0 to 29 | 45 to 59 | 75 to 84 | 75 to 84 | 75 to 84 | pest or weed control at 70 g/ha [2, 13]: 85 to 94%; pest or weed control at 140 g/ha [2, 13]: 95 to 100%; pest or weed control at 70 g/ha [2, 14]: 0 to 29%; pest or weed control at 140 g/ha [2, 14]: 0 to 29%; pest or weed control at 70 g/ha [2, 15]: 0 to 29%; pest or weed control at 140 g/ha [2, 15]: 45 to 59%; pest or weed control at 70 g/ha [2, 16]: 85 to 94%; pest or weed control at 140 g/ha [2, 16]: 95 to 100%; pest or weed control at 70 g/ha [2, 17]: 0 to 29%; pest or weed control at 140 g/ha [2, 17]: 0 to 29%; melting point: 166.4 to 169 °C
